Assay results from ChEMBL document CHEMBL1125631, “Adenosine deaminase inhibitors: synthesis and structure-activity relationships of imidazole analogues of erythro-9-(2-hydroxy-3-nonyl)adenine” (J Med Chem, 1991).

Columns and labels:
[1] = target: T1, Adenosine deaminase (Bos taurus, UniProt P56658); test: Inhibition of calf intestinal adenosine deaminase
T1 sequence (P56658 whole entry): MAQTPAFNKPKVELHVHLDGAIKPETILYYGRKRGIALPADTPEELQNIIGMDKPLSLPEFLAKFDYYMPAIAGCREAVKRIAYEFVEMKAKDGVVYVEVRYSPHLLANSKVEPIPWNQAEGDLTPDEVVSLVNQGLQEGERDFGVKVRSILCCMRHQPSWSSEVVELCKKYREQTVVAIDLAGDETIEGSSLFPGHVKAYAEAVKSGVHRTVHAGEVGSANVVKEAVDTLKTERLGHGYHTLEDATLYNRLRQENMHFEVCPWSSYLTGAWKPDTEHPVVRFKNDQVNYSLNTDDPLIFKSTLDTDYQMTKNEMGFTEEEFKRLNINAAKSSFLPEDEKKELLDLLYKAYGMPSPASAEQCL

[2] = target: T1, Adenosine deaminase; test: Inhibition constant against calf intestinal adenosine deaminase; Not active

Structure (SMILES) | Ki [1] [µM] | Ki [2]
CCCCCCC(C(C)O)n1cnc(C(=O)NC)c1 (stereo unspecified) | 0.368 | 
CCCCCCC(C(C)O)n1cnc(C(=O)N(C)C)c1 (stereo unspecified) | 36.3 | 
Nc1cccc2c1ncn2C1O[C@H](CO)[C@@H](O)[C@H]1O (stereo partly specified) | 110 | 
CCCCCCC(C(C)O)n1cnc(C(N)=O)c1N (stereo unspecified) | 1.04 | 
CCCCCCC(C(C)O)n1cnc(CN)c1 (stereo unspecified) | 4.02 | 
CCCCCCC(C(C)O)n1cnc(CO)c1 (stereo unspecified) | 2.52 | 
Nc1ccnc2c1ccn2C1O[C@H](CO)[C@@H](O)[C@H]1O (stereo partly specified) |  | Not Active
CCCCCCC(C(C)O)n1cnc(C(=O)OCC)c1N (stereo unspecified) | 347 | 
CCCCCCC(C(C)O)n1cnc(C(=O)O)c1 (stereo unspecified) | 39 | 
N=C(N)c1ncn(C2O[C@H](CO)[C@@H](O)[C@H]2O)c1N (stereo partly specified) |  | Not Active
CCCCCCC(C(C)O)n1cnc(C(=N)S)c1 (stereo unspecified) | 0.0471 | 
N=C(N)c1cn(C2O[C@H](CO)[C@@H](O)[C@H]2O)cn1 (stereo partly specified) |  | Not Active
CCCCCCC(C(C)O)n1cnc(C(N)=O)c1 (stereo unspecified) | 0.0353 | 
CCCCCCC(C(C)O)n1cnc(C(=O)NC[C@H](C)O)c1 (stereo partly specified) | 6.9 | 
CCCCCCC(C(C)O)n1cnc(C(=O)NCc2ccccc2)c1 (stereo unspecified) | 86 | 
NC(=O)c1ccn(C2O[C@H](CO)[C@@H](O)[C@H]2O)c1 (stereo partly specified) |  | Not Active
Nc1ncnc2c1ccn2[C@@H]1O[C@H](CO)[C@@H](O)[C@H]1O [TUBERCIDIN] |  | Not Active
CCCCCCC(C(C)O)n1cnc(C(=O)OCC)c1 (stereo unspecified) | 66 | 
CCCCCCC(C(C)O)n1cnc(C(=N)N)c1N (stereo unspecified) | 10.6 | 
CCCCCCC(C(C)O)n1cnc(C(=O)NC[C@@H](C)O)c1 (stereo partly specified) | 32.1 | 
CCCCCCC(C(C)O)n1cnc(C(N)=O)c1Cl (stereo unspecified) | 0.126 | 
CCCCCCC(C(C)O)n1cnc(C(=O)NCC)c1 (stereo unspecified) | 17.9 | 
CCCCCCC(C(C)O)n1cnc(C(=O)NCCO)c1 (stereo unspecified) | 0.93 | 
CCCCCCC(C(C)O)n1cnc(C(=O)NCCC)c1 (stereo unspecified) | 16 | 
CCCCCCC(C(C)O)n1cnc(C(=N)N)c1 (stereo unspecified) | 2.56 | 
CCCCCCC(C(C)O)n1cnc(C(=O)NC2CCCC2)c1 (stereo unspecified) | 41.1 | 
